From ChEMBL document CHEMBL1201862, “PubChem BioAssay data set” (2004) come the findings set out here.

Common to all, as to experiment: DTP human tumour cell line panel, 48 h
Test [1] has as its system SF-539.
In test [2] the test system is HOP-62.
The subject of test [3] is NCI/ADR-RES.
The test system of test [4] is 786-0.
The subject of test [5] is CAKI-1.
Test [6] deals with M14.
For test [7], the system named is SN12C.
Test [8] has as its system TK-10.
The subject of test [9] is RXF 393.
For test [10], the system named is K562.
Test [11] concerns UO-31.
Test [12] deals with KM12.
The subject of test [13] is IGROV-1.
Test [14] relates to UACC-62.
The test system of test [15] is LOX IMVI.
For test [16], the system named is HCT-116.
The test system of test [17] is MOLT-4.
The subject of test [18] is A549.
Test [19] relates to A498.
The subject of test [20] is CCRF-CEM.

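Compound exposure: 48 hours, 5 concentrations, 96-well plates. GI50: concentration for 50% inhibition of growth.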 Activity calls are given as the source filed them. Cut-off read from the data, not from the text of the source: active = GI50 up to about 1.1 µM and inactive = higher.

For orientation: GI50 means the concentration that inhibits growth by half. Turning to `Cc1cc2c(cc1C)NC1=C(O)C(c3c[nH]c4ccc(COc5ccccc5)cc34)OC1=N2` (configuration not stated), the GI50 was 27.4 µM (inactive) in [1]; 20.4 µM (inactive) in test [2]; > 100 µM (inactive) in test [3]; 30.5 µM (inactive) in test [4]; > 100 µM (inactive) in test [5]; > 100 µM (inactive) in test [6]. The GI50 in [7] is > 100 µM (inactive); in test [8], 53.5 µM (inactive); in [9], 39.6 µM (inactive); in test [10], > 100 µM (inactive); in [11], 79.8 µM (inactive); in [12], > 100 µM (inactive). The GI50 was 60.8 µM (inactive) in test [13]; > 100 µM (inactive) in test [14]; > 100 µM (inactive) in test [15]; 96.8 µM (inactive) in test [16]; 46.9 µM (inactive) in test [17]; > 100 µM (inactive) in test [18]. For the same compound, in test [19], the GI50 was 32 µM (inactive).

On to `Cn1c(=S)c2nc(SCc3cccnc3)[nH]c2n(C)c1=O`, for which the GI50 in test [1], in test [2], in test [3], in test [4], in test [5] and in test [6] was > 100 µM (inactive) in each case. Further, the GI50 in test [7], in [8], in [9], in test [10], in test [11] and in [12] was > 100 µM (inactive) each time. Further, the GI50 in [13], in test [14], in test [15], in test [16], in test [17] and in test [18] was > 100 µM (inactive) throughout. The GI50 in test [19] was > 100 µM (inactive).

With `COC(=O)C1=C(O)CCCC(C2CCCCC(=O)C2C(=O)OC)=C1` (configuration not stated), the GI50 was 24.5 µM (inactive) in test [1]; > 100 µM (inactive) in [3]; 37.8 µM (inactive) in test [4]; 31.1 µM (inactive) in [5]; > 100 µM (inactive) in test [6]; 38.2 µM (inactive) in [7]. Further, the GI50 in test [8] was > 100 µM (inactive); in [9], 90.2 µM (inactive); in test [10], 64.3 µM (inactive); in [11] it was > 100 µM (inactive); in [12] it was 94.6 µM (inactive); in test [20], 20.8 µM (inactive). Besides, the GI50 in test [13] is 36.8 µM (inactive); in [14] it was 19.4 µM (inactive); in [15], 25.6 µM (inactive); in test [16], 36.1 µM (inactive); in test [17], 31.3 µM (inactive); in [18], 44.3 µM (inactive). In addition, the GI50 in test [19] was 18.4 µM (inactive).

For the compound `Cc1c(N2C(=O)/C(=C/c3ccc(N(CCC#N)CCC#N)cc3)N=C2c2ccccc2)c(=O)n(-c2ccccc2)n1C`, the GI50 in [1], in [2], in test [3], in [4], in test [5] and in test [6] was > 100 µM (inactive) each time. For the same compound, the GI50 is > 100 µM (inactive) in test [7]; > 100 µM (inactive) in [9]; > 100 µM (inactive) in [11]; > 100 µM (inactive) in test [12]; 59.6 µM (inactive) in test [20]; > 100 µM (inactive) in test [13]. Also, the GI50 was > 100 µM (inactive) in test [14]; > 100 µM (inactive) in test [15]; > 100 µM (inactive) in [16]; 75.7 µM (inactive) in test [17]; > 100 µM (inactive) in test [18]; > 100 µM (inactive) in [19].

With `CCNC(=O)c1cc(Cl)ccc1NC(=O)C12CC3CC(CC(C3)C1)C2`, the GI50 in test [1] was > 100 µM (inactive); in test [2], 30.1 µM (inactive); in test [3] it was 47.8 µM (inactive); in test [4], 22.8 µM (inactive); in [5], 30.3 µM (inactive); in [6], 31.8 µM (inactive). The GI50 in [7] is 32.7 µM (inactive); in test [8], 52.8 µM (inactive); in [9], 19.2 µM (inactive); in test [10], 28.2 µM (inactive); in [11], 22.3 µM (inactive); in test [12], 27.2 µM (inactive). For the same compound, the GI50 in test [20] is 23.2 µM (inactive); in test [13] it was 33.1 µM (inactive); in [15], 42 µM (inactive); in [16], 31.3 µM (inactive); in test [17], 34.8 µM (inactive); in [18], 37.2 µM (inactive). For the same compound, in [19], the GI50 is > 100 µM (inactive).

For `COc1ccc2c(O)c3[n+](cc2c1OC)CCc1cc2c(cc1-3)OCO2`, the GI50 in [1], in [2], in test [3], in [5], in [6] and in [7] was > 100 µM (inactive) throughout. Further, the GI50 in [8] was > 100 µM (inactive); in [9], 25.4 µM (inactive); in test [10], 38.5 µM (inactive); in test [12] it was 66.1 µM (inactive); in test [20], 52.8 µM (inactive); in test [13], 91.8 µM (inactive). Besides, the GI50 in test [14] is 37.4 µM (inactive); in [15], 69 µM (inactive); in test [16], 41.8 µM (inactive); in [17], > 100 µM (inactive); in test [18], > 100 µM (inactive); in test [19], 61.5 µM (inactive).

As for `COC(=O)c1ccccc1CC(Cc1ccccc1)C(=O)OC` (configuration not stated), the GI50 in test [1] is > 100 µM (inactive); in [2] it was > 100 µM (inactive); in test [3], 42.5 µM (inactive); in test [4], 71.3 µM (inactive); in test [5] it was 83.4 µM (inactive); in [6], 68.7 µM (inactive). For the same compound, the GI50 in [7] was > 100 µM (inactive); in test [8], 99.1 µM (inactive); in [9] it was 33.7 µM (inactive); in [10], 37.7 µM (inactive); in test [11] it was 39.1 µM (inactive); in test [12], 87.3 µM (inactive). The GI50 in [20] is 87.9 µM (inactive); in test [13], > 100 µM (inactive); in test [15], 58.9 µM (inactive); in [16] it was 47.9 µM (inactive); in [17] it was 27.4 µM (inactive); in test [18] it was 61.9 µM (inactive). In test [19], the GI50 was 92.5 µM (inactive).

Take `O=C(O)c1cccc2c1/C(=N/Nc1ccccc1)CC2`: the GI50 in [1] was > 100 µM (inactive); in test [2] it was > 100 µM (inactive); in [3], > 100 µM (inactive); in test [4] it was > 100 µM (inactive); in [5], 26.1 µM (inactive); in [6], 16.6 µM (inactive). For the same compound, the GI50 in [8], in test [9], in [10], in test [11], in test [12] and in [20] was > 100 µM (inactive) each time. For the same compound, the GI50 in [13], in [15], in [16], in [17] and in [19] was > 100 µM (inactive) in each case.

On to `C#CC1(O)CCCCCCCCC2(CCCCCCCC1)OCCO2`, for which the GI50 in test [1] is 18 µM (inactive); in [2], 29.7 µM (inactive); in [3], 18.1 µM (inactive); in test [4], 17.6 µM (inactive); in test [5], 12 µM (inactive); in [6], 19.6 µM (inactive). Also, the GI50 in test [7] is 17.4 µM (inactive); in test [8] it was 20.7 µM (inactive); in [9], 10.9 µM (inactive); in test [10] it was 17.5 µM (inactive); in [11], < 0.01 µM (active); in test [12] it was 18.6 µM (inactive). Further, the GI50 in test [13] was 16.7 µM (inactive); in test [14], 14.8 µM (inactive); in test [15], 22.1 µM (inactive); in [16], 16.5 µM (inactive); in [18], 13.9 µM (inactive); in [19], 14.7 µM (inactive).

In the case of `NCCCN(CCCCN(CCCN)Cc1ccc2ccccc2c1)Cc1ccc2ccccc2c1`, the GI50 in test [1] was 1.8 µM (inactive); in test [3] it was 18.7 µM (inactive); in test [4], 1.62 µM (inactive); in test [5], 1.65 µM (inactive); in [6], 1.97 µM (inactive); in test [7] it was 1.57 µM (inactive). Besides, the GI50 in test [8] is 2.21 µM (inactive); in test [9], 1.95 µM (inactive); in [10], 3.51 µM (inactive); in test [11] it was 2.32 µM (inactive); in test [12], 1.86 µM (inactive); in test [20], 27 µM (inactive). Also, the GI50 was 1.82 µM (inactive) in test [13]; 2.08 µM (inactive) in [14]; 2.1 µM (inactive) in test [15]; 2.54 µM (inactive) in [16]; 2.01 µM (inactive) in test [17]; 1.68 µM (inactive) in test [18]. Besides, the GI50 in [19] was 2.1 µM (inactive).

As to `CC1=NN(c2cccc(Cl)c2)C2(SCC(=O)N2c2nc3ccccc3s2)C1=CC=Cc1ccccc1` (configuration not stated), the GI50 is 44.1 µM (inactive) in test [1]; 36.1 µM (inactive) in test [2]; 34.8 µM (inactive) in test [3]; 35.2 µM (inactive) in test [4]; 31.1 µM (inactive) in test [5]; 32.1 µM (inactive) in test [6]. The GI50 is 62.4 µM (inactive) in test [8]; 25.5 µM (inactive) in test [9]; 13.3 µM (inactive) in [10]; 23.6 µM (inactive) in test [11]; 31.2 µM (inactive) in test [12]; 3.4 µM (inactive) in test [20]. The GI50 was 31.3 µM (inactive) in test [13]; 35.3 µM (inactive) in test [15]; 22.6 µM (inactive) in [16]; 19.1 µM (inactive) in test [17]; 20.7 µM (inactive) in test [19].
